# How the values were obtained:
# ROCKII (1-543) [1] = target: T1, ROCKII (1-543) (Homo sapiens (Human), UniProt O75116); test: IMAP Assay (Assay 2); format: biochemical; conditions: IMAP fluorescence polarization; 100 μM ATP, 1 nM kinase
# Method: This assay is performed using FAM S6 substrate peptide (Catalogue #R7184) and IMAP FP Screening Express Kit detection reagents from Molecular Devices (Sunnyvale, Calif.) in IMAP kinase reaction buffer (Tris-HCl, pH 7.2, 10 mM MgCl2, 0.05% NaN3, 0.1% phosphate-free BSA) containing 1 mM DTT. Test compounds dissolved in neat DMSO at 0.3 mg/mL are serially diluted 1 to 3 for concentration response in 100% DMSO. The DMSO serial dilutions are further diluted 33.33-fold in kinase reaction buffer, and 10 μL of this buffer dilution is transferred to Corning black 96-well half area NBS plates for a final top concentration of 3 μg/mL in 1% DMSO. 10 μL aliquot of 3 nM ROCKII (1-543) diluted in kinase reaction buffer is added to each assay well for a final concentration of 1 nM kinase. 10 μL of a mixture of 600 nM FAM S6 peptide and 300 μM ATP diluted in kinase reaction buffer is added to each well for a final concentration of 200 nM peptide and 100 μM ATP. The kinase reaction mixture is incubated for 60 minutes at room temperature. Positive controls are reaction mixtures containing no test compound and negative controls (blanks) are reaction mixtures containing no kinase. The kinase reaction is stopped by addition of 60 μL IMAP progressive binding reagent (Catalog #R7284) diluted 400-fold in 1× Binding buffer A. After 30 min of incubation at room temperature, the plates are read for fluorescence polarization on Analyst Plate Reader using Ex 485 nm, Em 530 nm, and FL 505 dichroic minor. The mP signals are converted to percent of control (POC) values using the formula: POC=100*(Signal−BCTRL)÷(PCTRL−BCTRL)
# Where Signal is the test well signal, BCTRL is the average of background (negative control) well signals on the plate and PCTRL is the average of positive control well signals on the plate. For the concentration-responsive compounds, POC as a function of test compound concentration is fitted to a 4-parameter logistic equation of the form: Y=A+(B−A)/[1+(x/C)D]
# Where A, B, C, and D are fitted parameters (parameter B is fixed at zero POC), and x and y are the independent and dependent variables, respectively. The IC50 is determined as the inflection point parameter, C.
# Target sequence in this assay (O75116 1-543, species assumed): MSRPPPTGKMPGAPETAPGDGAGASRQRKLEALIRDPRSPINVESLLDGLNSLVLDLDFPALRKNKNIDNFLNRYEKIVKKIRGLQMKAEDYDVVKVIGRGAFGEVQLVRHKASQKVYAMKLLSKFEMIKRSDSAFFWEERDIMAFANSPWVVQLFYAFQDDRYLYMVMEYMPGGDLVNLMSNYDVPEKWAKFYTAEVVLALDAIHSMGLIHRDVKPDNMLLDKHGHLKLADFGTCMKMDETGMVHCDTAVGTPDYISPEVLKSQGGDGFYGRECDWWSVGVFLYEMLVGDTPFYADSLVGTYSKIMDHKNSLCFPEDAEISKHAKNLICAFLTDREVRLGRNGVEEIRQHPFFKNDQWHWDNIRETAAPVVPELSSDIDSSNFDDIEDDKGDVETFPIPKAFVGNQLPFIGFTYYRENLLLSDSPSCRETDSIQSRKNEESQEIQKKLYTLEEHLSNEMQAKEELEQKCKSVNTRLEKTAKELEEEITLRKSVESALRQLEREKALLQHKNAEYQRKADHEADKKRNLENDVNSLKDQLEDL
# ROCKII (1-543) [2] = target: T1, ROCKII (1-543); test: Luciferin-Luciferase Assay (Assay 1); format: biochemical; conditions: luciferin-luciferase residual ATP; 750 nM ATP, 7.5 nM kinase
# Method: 1. Luciferin-Luciferase Assay
# The activity of ROCKII (1-543) kinase is measured utilizing Cambrex PKLight ATP Detection Reagent, a homogeneous assay technology using luciferin-luciferase to quantify residual ATP. The assay is performed in 384-well low-volume, white, non-binding surface microtiter plates (Corning). The assay buffer is 25 mM HEPES, pH 7.5, 10 mM MgCl2, 50 mM KCl, 0.2% BSA, 0.01% CHAPS, 100 μM Na3VO4 and 0.5 mM DTT. Test compounds, dissolved in neat DMSO at 500 μg/mL, are serially diluted for dose response for a final starting concentration of 3 μg/mL in 1% DMSO of assay buffer. ROCKII (1-543) (62,408 Da) is diluted in assay buffer to a final concentration of 7.5 nM in a total volume of 15 μL. Positive controls are reaction mixtures containing no test compound; negative controls (blanks) are reaction mixtures containing no kinase. After 15 minutes of pre-incubation of the test compounds with the kinase, a mixture of ATP and peptide substrate ([…]) in assay buffer is added to each well for a final concentration of 750 nM ATP and 500 nM peptide, respectively. After 90 minutes of incubation of the kinase reaction at 28° C. temperature, 10 μL of PKLight ATP Detection Reagent (warmed to room temperature previously) is added to each well. The assay plate is incubated at room temperature for additional 15 minutes and then read on an Analyst in luminescence mode. Dose-response experiments for each of the test compounds are conducted in quadruplet. IC50 values of test compounds represent 50% response of the positive control from the dose-response curve.
# Target sequence in this assay (O75116 1-543): as the sequence (O75116 1-543, species assumed) above
Structure (SMILES),IC50 (ROCKII (1-543) [1]),IC50 (ROCKII (1-543) [2])
CN1CCc2ccc(NC(=O)c3cccc(CNC(=O)c4cccc(-c5cn[nH]c5)c4)c3)cc2C1 [compound 3],5.1 nM,4 nM
CN1CCc2nc(NC(=O)c3cccc(CNC(=O)c4cccc(-c5cccnc5)c4)c3)sc2C1 [compound 4],73 nM,22.5 nM
CN1CCc2nc(NC(=O)c3cccc(CNC(=O)c4cccc(-c5cn[nH]c5)c4)c3)sc2C1 [compound 6],0.53 nM,2 nM
Cc1nnnn1-c1ccc(C(=O)NCc2cccc(C(=O)Nc3nc4c(s3)CN(C)CC4)c2)cc1 [compound 8],9.8 nM,6 nM
CN1CCc2nc(NC(=O)c3cccc(CNC(=O)c4csc(-c5cccnc5)n4)c3)sc2C1 [compound 14],7.9 nM,4.8 nM
CN1CCc2ccc(NC(=O)c3cccc(CNC(=O)c4cn5cc(C(N)=O)ccc5n4)c3)cc2C1 [compound 21],25 nM,5.9 nM
CN1CCc2nc(NC(=O)c3cccc(CNC(=O)c4csc(-c5ccncc5)n4)c3)sc2C1 [compound 22],37 nM,5.8 nM
N[C@H]1CCc2nc(NC(=O)c3cccc(CNC(=O)c4ccc(-c5csnn5)cc4)c3)sc2C1 [compound 26],40 nM,7.6 nM
CN1CCc2ccc(NC(=O)c3cccc(CNC(=O)c4csc(-c5cccnc5)n4)c3)cc2C1 [compound 27],45 nM,9.8 nM
N[C@@H]1CCc2nc(NC(=O)c3cccc(CNC(=O)c4cccc(-c5cn[nH]c5)c4)c3)sc2C1 [compound 28],0.45 nM,1.1 nM
CN1CCc2ccc(NC(=O)c3cccc(CNC(=O)c4ccc5cc(O)ccc5c4)c3)cc2C1 [compound 29],2 nM,2.6 nM
N[C@H]1CCc2nc(NC(=O)c3cccc(CNC(=O)c4cccc(-c5cn[nH]c5)c4)c3)sc2C1 [compound 30],0.16 nM,0.72 nM
CN1CCc2ccc(NC(=O)c3cccc(CNC(=O)c4ccc(C5=CSNN5)cc4)c3)cc2C1 [compound 31],4.6 nM,4.6 nM
Cc1nnnn1-c1ccc(C(=O)NCc2cccc(C(=O)Nc3nc4c(s3)C[C@H](N)CC4)c2)cc1 [compound 36],3 nM,1.4 nM
Cc1nnnn1-c1ccc(C(=O)NCc2cccc(C(=O)Nc3nc4c(s3)C[C@@H](N)CC4)c2)cc1 [compound 38],0.67 nM,1.1 nM
CN1CCc2ccc(NC(=O)c3cccc(CNC(=O)c4ccc(-n5ccnc5)cc4)c3)cc2C1 [compound 39],9.9 nM,4.9 nM
N[C@@H]1CCc2nc(NC(=O)c3cccc(CNC(=O)c4cccc(-c5cccnc5)c4)c3)sc2C1 [compound 40],10 nM,1.9 nM
N[C@H]1CCc2nc(NC(=O)c3cccc(CNC(=O)c4cccc(-c5cccnc5)c4)c3)sc2C1 [compound 42],2 nM,1.2 nM
Cc1c(C(=O)NCc2cccc(C(=O)Nc3nc4c(s3)CN(C)CC4)c2)nnn1-c1nonc1N [compound 44],9.3 nM,1.8 nM
CN1CCc2nc(NC(=O)c3cccc(CNC(=O)c4nnn(-c5nonc5N)c4-c4ccccc4)c3)sc2C1 [compound 46],4.9 nM,1.8 nM
CN1CCc2ccc(NC(=O)c3cccc(CNC(=O)c4ccc(-c5cnco5)cc4)c3)cc2C1 [compound 49],26 nM,2.6 nM
"CN1CCc2ccc(NC(=O)c3cccc(CNC(=O)c4cn5ccc(C(N)=O)cc5n4)c3)cc2C1 [compound 50, imidazo[1,2-a]pyridine-2,7-dicarboxylic acid 7-amide 2-[3-(2-methyl-1,2,3,4-tetrahydro-isoquinolin-7-ylcarbamoyl)-benzylamide]]",11 nM,2.9 nM
CN1CCc2ccc(NC(=O)c3cccc(CNC(=O)c4cc5ccc(C#N)cc5[nH]4)c3)cc2C1 [compound 52],8.1 nM,2.2 nM
CN1CCc2ccc(NC(=O)c3cccc(CNC(=O)c4cc5ccc(C(N)=O)cc5[nH]4)c3)cc2C1 [compound 54],0.45 nM,1.3 nM

Structure (SMILES),IC50 (ROCKII (1-543) [1]),IC50 (ROCKII (1-543) [2])
Cc1sc(-c2ccncc2)nc1C(=O)NCc1cccc(C(=O)Nc2nc3c(s2)CN(C)CC3)c1 [compound 58],1.2 nM,2.1 nM
CN1CCc2ccc(NC(=O)c3cccc(CNC(=O)c4ccc(-c5cnco5)s4)c3)cc2C1 [compound 64],1 nM,1.5 nM
CN1CCc2nc(NC(=O)c3cccc(CNC(=O)c4cn5ccc(C#N)cc5n4)c3)sc2C1 [compound 66],12 nM,2.5 nM
CN1CCc2ccc(NC(=O)c3cccc(CNC(=O)c4cccc(-c5ccncc5)c4)c3)cc2C1 [compound 69],–,44.5 nM
CN1CCc2nc(NC(=O)c3cccc(CNC(=O)c4cc(-c5ccncc5)n[nH]4)c3)sc2C1 [compound 74],0.23 nM,1.3 nM
Cc1nc(-c2ccncc2)sc1C(=O)NCc1cccc(C(=O)Nc2nc3c(s2)CN(C)CC3)c1 [compound 76],1.4 nM,1.2 nM
CN1CCc2ccc(NC(=O)c3cccc(CNC(=O)c4cc5cc(C#N)ccc5[nH]4)c3)cc2C1 [compound 80],0.58 nM,1.5 nM
CN1CCc2nc(NC(=O)c3cccc(CNC(=O)c4cn5cc(C#N)ccc5n4)c3)sc2C1 [compound 88],–,45.7 nM
CCn1c(C(=O)NCc2cccc(C(=O)Nc3ccc4c(c3)CN(C)CC4)c2)cc2cc(C#N)ccc21 [compound 102],–,47 nM
CN1CCc2nc(NC(=O)c3cccc(CNC(=O)c4ccc(-c5cccnc5)s4)c3)sc2C1 [compound 110],–,15.5 nM
Cc1ncc(-c2ccc(C(=O)NCc3cccc(C(=O)Nc4nc5c(s4)CN(C)CC5)c3)s2)o1 [compound 116],–,14.5 nM
CCn1c(C(=O)NCc2cccc(C(=O)Nc3ccc4c(c3)CN(C)CC4)c2)cc2ccc(C#N)cc21 [compound 118],–,24 nM
CN1CCc2ccc(NC(=O)c3cccc(CNC(=O)C4=NC5=CC=NC(=O)C5C=C4)c3)cc2C1 (centres unmarked) [compound 122],–,27.5 nM
CN1CCc2ccc(NC(=O)c3cccc(CNC(=O)c4cc5cccc(O)c5cc4O)c3)cc2C1 [compound 133],–,80 nM
CN1CCc2ccc(NC(=O)c3cccc(CNC(=O)c4ccc(-c5nnco5)cc4)c3)cc2C1 [compound 145],–,49.3 nM
CN1CCc2ccc(NC(=O)c3cccc(CNC(=O)c4ccc5[nH]c(=O)ccc5c4)c3)cc2C1 [compound 175],–,22.5 nM
CN1CCc2ccc(NC(=O)c3cccc(CNC(=O)c4ccc(-c5ccc(N)nc5)s4)c3)cc2C1 [compound 177],–,68 nM
CN1CCc2ccc(NC(=O)c3cccc(CNC(=O)c4ccc5c(c4)OCC(=O)N5)c3)cc2C1 [compound 182],–,81 nM
CN1CCc2ccc(NC(=O)c3cccc(CNC(=O)c4ccc5c(c4)CCC(=O)N5)c3)cc2C1 [compound 184],–,18 nM
CN1CCc2ccc(NC(=O)c3cccc(CNC(=O)c4cccc(-n5ccnc5)c4)c3)cc2C1 [compound 186],–,14.5 nM
CN1CCc2ccc(NC(=O)c3cccc(CNC(=O)c4cc(-c5cccnc5)[nH]n4)c3)cc2C1 [compound 188],–,91.5 nM
Cc1nc2cnccc2n1-c1ccc(C(=O)NCc2cccc(C(=O)Nc3ccc4c(c3)CN(C)CC4)c2)cc1 [compound 198],–,38 nM
CCN1C(=O)CSc2ccc(C(=O)NCc3cccc(C(=O)Nc4ccc5c(c4)CN(C)CC5)c3)cc21 [compound 210],–,86 nM

# From patent US8697911B2, “Rho kinase inhibitors” (Boehringer Ingelheim International GmbH, priority 2010, dated 2014)
